Results reported in patent publication US4414332A (Boehringer Mannheim GmbH, priority 1980, dated 1983).
Entries after “also recorded” stand apart in the source; their conditions may differ. Read-outs that look alike come from different tables or passages of the source.

Target: T1, endoproteinase-Lys-C (Lysobacter enzymogenes, UniProt Q7M135)
T1 construct: consists of a chain of molecular weight 35000 to 38000 Dalton; made in house
Assay: Inhibition of endoproteinase-Lys-C by protease inhibitors
Format: biochemical, Lysobacter enzymogenes ssp. enzymogenes

T1 sequence (Q7M135 whole entry): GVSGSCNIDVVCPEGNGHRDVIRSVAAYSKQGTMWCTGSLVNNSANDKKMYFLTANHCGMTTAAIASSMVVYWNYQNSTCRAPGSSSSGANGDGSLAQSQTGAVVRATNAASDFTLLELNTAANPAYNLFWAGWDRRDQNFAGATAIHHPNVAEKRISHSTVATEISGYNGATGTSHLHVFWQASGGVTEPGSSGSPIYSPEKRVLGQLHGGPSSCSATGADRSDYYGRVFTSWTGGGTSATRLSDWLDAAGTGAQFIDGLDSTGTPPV

Row | Compound | inhibition of the enzyme | also measured
1 | N=C(N)c1ccccc1 [Benzamidine] |  | inhibition at 2500 µM (at 2.5 mM, read-out: inhibition of the enzyme): ~50%
2 | O=C(O)CN(CCN(CC(=O)O)CC(=O)O)CC(=O)O [ethylenediaminetetraacetic acid] | not inhibited | inhibition of the enzyme (EDTA up to 10^-2 M): do not inhibit
3 | aprotinin | inhibited | inhibition of the enzyme (listed as Aprotonin): inhibits the enzyme completely
4 | α1 -antitrypsin | not inhibited; also recorded: do not inhibit | 
5 | α2 -macroglobulin | not inhibited | inhibition of the enzyme (listed as alpha2 microglobulin): do not inhibit
